According to patent publication US12303588B2, “Composition containing Cirsium japonicum extract as active ingredient for stimulating melanogenesis” (BIOSPECTRUM, INC., priority 2017, dated 2025):

Tested on: human skin
Assay: Cumulative skin irritation patch test (safety to the human skin)
Assay type: in vivo
Settings: 30 adults; for Number of subjects showing response ±: 1st week
Description: In order to identify as to whether the Cirsium japonicum extract is safe or not, a test for identifying the safety to the human skin was performed. For this, a cumulative skin irritation was carried out. A nutritious cream containing 0.1%, 0.5% and 1% of Cirsium japonicum extracts of Example 1, respectively, was prepared. Specifically, purified water, triethanolamine, and propylene glycol were heated and dissolved at a temperature of 70° C. (aqueous phase). Beeswax, liquid paraffin, oily ingredients, emulsifiers and preservatives were heated and dissolved at a temperature of 70° C. (oil phase). The oil phase was added to the aqueous phase to prepare an emulsion. After emulsification was completed, the solution was cooled to 45° C., and Cirsium japonicum extracts were added 0.1%, 0.5% and 1% respectively, dispersed and then cooled to 30° C. As the content of the Cirsium japonicum extract was increased to 0.1%, 0.5% and 1%, the nutritional cream was prepared by reducing the content of the liquid paraffin to 9.91%, 9.51% and 9.01%, respectively. The nourishing cream prepared as described above was applied as a patch to areas of humerus of 30 adults for accumulated 24 hours on alternate day in total 9 times to test as to whether the Cirsium japonicum extract stimulates the skin. The patch used Finn chamber ([…]) and the patch was practiced after dropping with […] of the skin external preparations prepared from the above, respectively. The degree of the reaction represented on the skin in every time was scored by using the below experimental formula 1. Mean reaction degree=[{(reaction index×reaction degree)/(total number of the subject×the highest score (four point))}×100]/times of the test (9times) [Experimental Formula 1] In regard to the response degree, 1 point was provided for ±, 2 points for +, and 4 points for ++. When the mean reaction degree is less than 3, it is considered as being the safe composition.

Q: How did the “Number of subjects showing response ±” value (1st application) turn out when `CC(C)=CCC/C(C)=C/CC/C(C)=C/CC/C=C(\C)CC/C=C(\C)CCC=C(C)C` [Control group (Squalene), Squalene] was run?
A: 1

Q: What about the “Number of subjects showing response ±” value (2nd application) of the same compound?
A: 0

Q: What about the Average response degree (24 h patch on alternate days, 9 times, less than 3 = safe) of the same compound?
A: 0.09
